Data on four compounds can be found in PubChem BioAssay AID1259407 (Chemical Carcinogenesis Research Information System (CCRIS), 2018).

The subject of the series is CCRIS mutagenicity, Ames/micronucleus/aberration tests. Nature of the series: CCRIS mutagenicity studies.
The mark [1] stands for this setting: Test System: AMES SALMONELLA TYPHIMURIUM, Strain/Indicator: TA98, Metabolic Activation: NONE, Method: PREINCUBATION
Setting [2] is: Test System: AMES SALMONELLA TYPHIMURIUM, Strain/Indicator: TA98, Metabolic Activation: NONE, Method: STANDARD PLATE.
The mark [3] stands for this setting: Test System: AMES SALMONELLA TYPHIMURIUM, Strain/Indicator: TA100, Metabolic Activation: NONE, Method: PREINCUBATION
The mark [4] stands for this setting: Test System: AMES SALMONELLA TYPHIMURIUM, Strain/Indicator: TA100, Metabolic Activation: NONE, Method: STANDARD PLATE.
Setting [5] is: Test System: AMES SALMONELLA TYPHIMURIUM, Strain/Indicator: TA1535, Metabolic Activation: NONE, Method: PREINCUBATION

Each structure is given as a SMILES string. Activity calls are given as the source filed them. The rule behind the calls is not given here.

With `CC(C)Nc1ccc(Nc2ccccc2)cc1`, the mutagenic call is “inactive; negative” (Test System: AMES SALMONELLA TYPHIMURIUM, Strain/Indicator: TA98, Metabolic Activation: HAMSTER, LIVER, S-9, AROCLOR 1254 (10%), Method: PREINCUBATION); “inactive; negative” under setting [1]; “inactive; negative” under setting [2]; “inactive; negative” (Test System: AMES SALMONELLA TYPHIMURIUM, Strain/Indicator: TA98, Metabolic Activation: RAT LIVER S-9, PHENOBARBITAL AND BETA-NAPHTHOFLAVONE, Method: PREINCUBATION); “inactive; negative” (Test System: AMES SALMONELLA TYPHIMURIUM, Strain/Indicator: TA98, Metabolic Activation: RAT, LIVER, S-9, AROCLOR 1254 (10%), Method: PREINCUBATION); “inactive; negative” (Test System: AMES SALMONELLA TYPHIMURIUM, Strain/Indicator: TA98, Metabolic Activation: S-9, Method: STANDARD PLATE). Also, the mutagenic call runs as follows: (Test System: AMES SALMONELLA TYPHIMURIUM, Strain/Indicator: TA100, Metabolic Activation: HAMSTER, LIVER, S-9, AROCLOR 1254 (10%), Method: PREINCUBATION) “inactive; negative”; under setting [3], “inactive; negative”; under setting [4], “inactive; negative”; (Test System: AMES SALMONELLA TYPHIMURIUM, Strain/Indicator: TA100, Metabolic Activation: RAT LIVER S-9, PHENOBARBITAL AND BETA-NAPHTHOFLAVONE, Method: PREINCUBATION) “inactive; negative”; (Test System: AMES SALMONELLA TYPHIMURIUM, Strain/Indicator: TA100, Metabolic Activation: RAT, LIVER, S-9, AROCLOR 1254 (10%), Method: PREINCUBATION) “inactive; negative”; (Test System: AMES SALMONELLA TYPHIMURIUM, Strain/Indicator: TA100, Metabolic Activation: S-9, Method: STANDARD PLATE) “inactive; negative”. In addition, the mutagenic call reads like this: (Test System: AMES SALMONELLA TYPHIMURIUM, Strain/Indicator: TA1535, Metabolic Activation: HAMSTER, LIVER, S-9, AROCLOR 1254 (10%), Method: PREINCUBATION) “inactive; negative”; under setting [5], “inactive; negative”; (Test System: AMES SALMONELLA TYPHIMURIUM, Strain/Indicator: TA1535, Metabolic Activation: RAT LIVER S-9, PHENOBARBITAL AND BETA-NAPHTHOFLAVONE, Method: PREINCUBATION) “inactive; negative”; (Test System: AMES SALMONELLA TYPHIMURIUM, Strain/Indicator: TA1535, Metabolic Activation: RAT, LIVER, S-9, AROCLOR 1254 (10%), Method: PREINCUBATION) “inactive; negative”; (Test System: AMES SALMONELLA TYPHIMURIUM, Strain/Indicator: TA1537, Metabolic Activation: HAMSTER, LIVER, S-9, AROCLOR 1254 (10%), Method: PREINCUBATION) “inactive; negative”; (Test System: AMES SALMONELLA TYPHIMURIUM, Strain/Indicator: TA1537, Metabolic Activation: NONE, Method: PREINCUBATION) “inactive; negative”. For the same compound, the mutagenic call (Test System: AMES SALMONELLA TYPHIMURIUM, Strain/Indicator: TA1537, Metabolic Activation: RAT LIVER S-9, PHENOBARBITAL AND BETA-NAPHTHOFLAVONE, Method: PREINCUBATION) is “inactive; negative”; the mutagenic call (Test System: AMES SALMONELLA TYPHIMURIUM, Strain/Indicator: TA1537, Metabolic Activation: RAT, LIVER, S-9, AROCLOR 1254 (10%), Method: PREINCUBATION) is “inactive; negative”; the mutagenic call (Test System: AMES SALMONELLA TYPHIMURIUM, Strain/Indicator: TA1538, Metabolic Activation: NONE, Method: PREINCUBATION) was “inactive; negative”; the mutagenic call (Test System: AMES SALMONELLA TYPHIMURIUM, Strain/Indicator: TA1538, Metabolic Activation: RAT LIVER S-9, PHENOBARBITAL AND BETA-NAPHTHOFLAVONE, Method: PREINCUBATION) was “inactive; negative”; the mutagenic call (Test System: E.COLI, Strain/Indicator: WP2UVRA, Metabolic Activation: NONE, Method: PREINCUBATION) was “inactive; negative”; the mutagenic call (Test System: E.COLI, Strain/Indicator: WP2UVRA, Metabolic Activation: RAT LIVER S-9, PHENOBARBITAL AND BETA-NAPHTHOFLAVONE, Method: PREINCUBATION) is “inactive; negative”.
Turning to `Clc1nncc2cccnc12`, the mutagenic call was “inactive; negative” under setting [1]; “active; positive” (Test System: AMES SALMONELLA TYPHIMURIUM, Strain/Indicator: TA98, Metabolic Activation: RAT, LIVER, S-9, PCB, Method: PREINCUBATION); “inactive; negative” under setting [3]; “active; positive” (Test System: AMES SALMONELLA TYPHIMURIUM, Strain/Indicator: TA100, Metabolic Activation: RAT, LIVER, S-9, PCB, Method: PREINCUBATION).
With `CC(=O)c1ccncc1`, the mutagenic call (End Point: IN VITRO CHROMOSOMAL ABERRATIONS, Test System: CHO-LB CELLS, Metabolic Activation: RAT, LIVER, S-9, AROCLOR 1254) was “active; positive”; the mutagenic call (Test System: AMES SALMONELLA TYPHIMURIUM, Strain/Indicator: TA97, Metabolic Activation: HAMSTER, LIVER, S-9, AROCLOR 1254 (10 OR 30%), Method: PREINCUBATION) is “inactive; negative”; the mutagenic call (Test System: AMES SALMONELLA TYPHIMURIUM, Strain/Indicator: TA97, Metabolic Activation: NONE, Method: PREINCUBATION) was “inactive; negative”; the mutagenic call (Test System: AMES SALMONELLA TYPHIMURIUM, Strain/Indicator: TA97, Metabolic Activation: RAT, LIVER, S-9, AROCLOR 1254 (10 OR 30%), Method: PREINCUBATION) is “inactive; negative”; the mutagenic call (Test System: AMES SALMONELLA TYPHIMURIUM, Strain/Indicator: TA98, Metabolic Activation: HAMSTER, LIVER, S-9, AROCLOR 1254 (10 OR 30%), Method: PREINCUBATION) is “inactive; negative”; the mutagenic call under setting [1] was “inactive; negative”. Moreover, the mutagenic call (Test System: AMES SALMONELLA TYPHIMURIUM, Strain/Indicator: TA98, Metabolic Activation: RAT, LIVER, S-9, AROCLOR 1254 (10 OR 30%), Method: PREINCUBATION) is “inactive; negative”; the mutagenic call (Test System: AMES SALMONELLA TYPHIMURIUM, Strain/Indicator: TA100, Metabolic Activation: HAMSTER, LIVER, S-9, AROCLOR 1254 (10 OR 30%), Method: PREINCUBATION) was “inactive; negative”; the mutagenic call under setting [3] is “inactive; negative”; the mutagenic call (Test System: AMES SALMONELLA TYPHIMURIUM, Strain/Indicator: TA100, Metabolic Activation: RAT, LIVER, S-9, AROCLOR 1254 (10 OR 30%), Method: PREINCUBATION) was “inactive; negative”; the mutagenic call (Test System: AMES SALMONELLA TYPHIMURIUM, Strain/Indicator: TA1535, Metabolic Activation: HAMSTER, LIVER, S-9, AROCLOR 1254 (10 OR 30%), Method: PREINCUBATION) was “inactive; negative”; the mutagenic call under setting [5] is “inactive; negative”. Moreover, the mutagenic call (Test System: AMES SALMONELLA TYPHIMURIUM, Strain/Indicator: TA1535, Metabolic Activation: RAT, LIVER, S-9, AROCLOR 1254 (10 OR 30%), Method: PREINCUBATION) is “inactive; negative”.
For `CC[n+]1c2ccccc2nc2ccccc21`, the mutagenic call under setting [2] is “inactive; negative”; the mutagenic call (Test System: AMES SALMONELLA TYPHIMURIUM, Strain/Indicator: TA98, Metabolic Activation: RAT, LIVER, S-9, AROCLOR 1254, Method: STANDARD PLATE) was “active; positive”; the mutagenic call under setting [4] was “inactive; negative”; the mutagenic call (Test System: AMES SALMONELLA TYPHIMURIUM, Strain/Indicator: TA100, Metabolic Activation: RAT, LIVER, S-9, AROCLOR 1254, Method: STANDARD PLATE) is “inactive; negative”; the mutagenic call (Test System: AMES SALMONELLA TYPHIMURIUM, Strain/Indicator: TA102, Metabolic Activation: NONE, Method: STANDARD PLATE) is “inactive; negative”; the mutagenic call (Test System: AMES SALMONELLA TYPHIMURIUM, Strain/Indicator: TA1537, Metabolic Activation: RAT, LIVER, S-9, AROCLOR 1254, Method: STANDARD PLATE) is “active; positive”. For the same compound, the mutagenic call was “inactive; negative” (Test System: AMES SALMONELLA TYPHIMURIUM, Strain/Indicator: TA1538, Metabolic Activation: NONE, Method: STANDARD PLATE); “inactive; negative” (Test System: AMES SALMONELLA TYPHIMURIUM, Strain/Indicator: TA1538, Metabolic Activation: RAT, LIVER, S-9, AROCLOR 1254, Method: STANDARD PLATE); “inactive; negative” (Test System: AMES SALMONELLA TYPHIMURIUM, Strain/Indicator: TA2638, Metabolic Activation: NONE, Method: STANDARD PLATE); “inactive; negative” (Test System: E. COLI, Strain/Indicator: WP2 (PKM101), Metabolic Activation: NONE, Method: STANDARD PLATE); “active; positive” (Test System: E. COLI, Strain/Indicator: WP2 UVRA (PKM101), Metabolic Activation: NONE, Method: STANDARD PLATE).
